Measurements from US20040033963A1, “Urea composition” (priority 2002, published 2004).

Experiment: Antioxidant screening: prevention or retardation of air oxidation of anthralin, hydroquinone or banana peel
Settings: screening methods: air oxidation of anthralin
Method: The antioxidant property of some hydroxyacids, polyhydroxy acids and lactones are determined as follows. Oxidation by definition is removal of electrons or addition of oxygen. An antioxidant can be defined as a substance capable of preventing or inhibiting oxidation, or capable of disposing, scavenging, or suppressing formation or actions of peroxide, superoxide or free radicals. We have developed three simple assays to determine if a substance is an antioxidant or not. The antioxidant property is determined by using one of the following screening methods: prevention or retardation of air oxidation of (a) anthralin, (b) hydroquinone, or (c) banana peel. A freshly prepared anthralin solution or cream is bright yellow, and an air oxidized one is brownish or black. A hydroquinone solution or cream is colorless or white color, and an air-oxidized one is brownish or black. A freshly peeled banana peel is light yellow in color, and an oxidized one ranges in color from tan, dark tan, brown to brownish black.
Known antioxidants such as vitamin C and N-acetylcysteine may be used as the positive control in these screening methods.
In the case of O=C1O[C@H]([C@@H](O)CO)C(O)=C1O [ascorbic acid], the antioxidant property is reported as “antioxidants”. With O=C(O)CC(O)(CC(=O)O)C(=O)O [citric acid] the antioxidant property was “antioxidants”. For O=C1O[C@@H]([C@H](O)CO)[C@H](O)[C@H]1O [galactonolactone], the antioxidant property was “antioxidants”. For O=C(O)[C@@H](O)[C@H]1OC(=O)[C@H](O)[C@H]1O [glucarolactone], the antioxidant property was “antioxidants”. In the case of O=C1O[C@@H]([C@H](O)[C@H](O)CO)[C@@H](O)C1O (stereo partly shown) [glucoheptonolactone], the antioxidant property is reported as “antioxidants”. With O=C(O)[C@H](O)[C@@H](O)[C@H](O)[C@H](O)CO [gluconic acid] the antioxidant property was “antioxidants”. In the case of O=C1O[C@H](CO)[C@@H](O)[C@H](O)[C@H]1O [gluconolactone], the antioxidant property is reported as “antioxidants”. For O=C[C@H](O)[C@H]1OC(=O)[C@@H](O)[C@H]1O [glucuronolactone], the antioxidant property was “antioxidants”. In the case of O=C1O[C@H]([C@H](O)CO)C(O)=C1O [isoascorbic acid], the antioxidant property is reported as “antioxidants”. In the case of O=C(O)CC(C(=O)O)C(O)C(=O)O (stereo not shown) [isocitric acid], the antioxidant property is reported as “antioxidants”. For O=C(O)CC(O)C(=O)O (stereo not shown) [malic acid], the antioxidant property was “antioxidants”. In the case of O=C1O[C@H](CO)[C@@H](O)[C@H]1O [ribonolactone], the antioxidant property is reported as “antioxidants”. With O=C(O)C(O)C(=O)O [tartronic acid] the antioxidant property was “antioxidants”.
